From PMC4724290 (Synapse (New York, N.Y.), 2015)
Values joined by “and” are separate entries in the source; they are usually repeats but may differ in a detail not shown here. Identical values can stand only once. “Also recorded” adds a separate entry of the source. Like-named read-outs stand apart in the source and are kept apart here.

What was measured:
σ2 receptors = biological target: T1, σ2 receptors (Mus musculus, UniProt Q8VD00); test: In vitro σ2 receptor binding, [^3H]DTG/; set-up: species or system CD-1 mouse
T1 sequence (Q8VD00 1-176): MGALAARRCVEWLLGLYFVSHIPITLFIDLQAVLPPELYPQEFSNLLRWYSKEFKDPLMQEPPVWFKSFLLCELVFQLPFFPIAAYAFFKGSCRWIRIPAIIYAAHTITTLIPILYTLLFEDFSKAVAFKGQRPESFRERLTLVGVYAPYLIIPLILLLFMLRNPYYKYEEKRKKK

σ1 receptors [1] = biological target: T2, σ1 receptors (Mus musculus, UniProt O55242); test: In vitro σ1 receptor binding, [^3H]; set-up: species or system CD-1 mouse; conditions: for Selectivity Ki Ratio σ2/σ1: CD-1 mouse whole brain membranes
T2 sequence (O55242 whole entry): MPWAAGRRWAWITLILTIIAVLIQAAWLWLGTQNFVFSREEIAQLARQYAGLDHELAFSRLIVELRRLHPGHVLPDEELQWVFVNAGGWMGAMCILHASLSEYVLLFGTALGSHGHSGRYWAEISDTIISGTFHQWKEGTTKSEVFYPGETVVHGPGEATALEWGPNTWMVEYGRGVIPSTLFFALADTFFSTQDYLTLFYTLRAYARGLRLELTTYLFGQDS

σ1 receptors [2] = biological target: T2, σ1 receptors; conditions: ref Lever et al., 2014a; cited from earlier work
σ1 receptors [3] = conditions: read-out: σ1 Ki; ref Lever et al., 2014a; cited from earlier work
σ1 receptors [4] = biological target: T2, σ1 receptors; type: in vivo, CD-1 mice; conditions: for Occupancy of cerebral σ1 receptors: in the absence of (−)-cocaine
σ1 receptors [5] = biological target: T2, σ1 receptors; type: in vivo, CD-1 mice; conditions: saline control, 60 min
[6] = ref Lever et al., 2012, 2014a, 2015; cited from earlier work
[7] = ref Fowler et al., 2007; cited from earlier work
striatal DAT = conditions: Swiss Webster strain; ref Desai and colleagues (2005); cited from earlier work
mice = conditions: cited from earlier work
[8] = biological target: striatal dopamine transporters (DAT) (Mus musculus, UniProt Q61327); test: In vivo DAT occupancy: inhibition of [^125I]RTI-121 specific binding in striatum; set-up: species or system CD-1 mice
Sequence of striatal dopamine transporters (DAT) (Q61327 whole entry): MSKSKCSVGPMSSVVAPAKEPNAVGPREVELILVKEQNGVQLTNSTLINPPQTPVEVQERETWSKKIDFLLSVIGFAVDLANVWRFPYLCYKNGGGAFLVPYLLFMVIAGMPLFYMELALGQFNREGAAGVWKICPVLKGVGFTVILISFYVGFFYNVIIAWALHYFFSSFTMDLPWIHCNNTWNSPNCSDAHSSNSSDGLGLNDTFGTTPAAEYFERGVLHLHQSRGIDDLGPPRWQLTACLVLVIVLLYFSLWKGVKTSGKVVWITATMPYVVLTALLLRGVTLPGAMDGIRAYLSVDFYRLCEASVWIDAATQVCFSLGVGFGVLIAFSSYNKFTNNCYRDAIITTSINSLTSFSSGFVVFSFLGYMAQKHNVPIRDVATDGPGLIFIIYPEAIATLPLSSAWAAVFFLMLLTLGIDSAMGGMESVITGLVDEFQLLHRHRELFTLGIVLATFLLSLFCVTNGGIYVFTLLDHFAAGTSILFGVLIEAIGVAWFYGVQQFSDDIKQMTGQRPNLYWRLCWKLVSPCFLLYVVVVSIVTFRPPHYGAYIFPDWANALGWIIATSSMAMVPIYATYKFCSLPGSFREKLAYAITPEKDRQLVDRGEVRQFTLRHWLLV

CD-1 mice = test: Locomotor activity: basal and; type: in vivo; conditions: i.p.; E-IA-DM-PE-PIPZE up to 3.16 μmol/kg, BD1063 3.16 and 31.6 μmol/kg; 60 min
DAT = conditions: read-out: Ki for the DAT in vitro; ref Lever et al., 2012; cited from earlier work
σ1 receptors [9] = biological target: T2, σ1 receptors; conditions: read-out: Kd for σ1 sites in mouse brain membranes; ref Lever et al., 2012; cited from earlier work
[10] = homologous saturation, 25 °C, 60 min, two-site model
[11] = 3.0 nM [^3H](+)pentazocine, 37 °C, 180 min
[12] = read-out: Sigma1 IC50, 3.0 nM [^3H](+)pentazocine, 37 °C, 180 min
[13] = 3.0 nM [^3H]DTG/500 nM (+)pentazocine, 25 °C, 60 min
[14] = read-out: Sigma2 IC50, 3.0 nM [^3H]DTG/500 nM (+)pentazocine, 25 °C, 60 min
[15] = 2.5 μCi i.v., 60 min, non-specific defined by BD1063
[16] = ligand i.p. 1 min prior to radioligand, 30 min, unconstrained fit

Cc1ccccc1NC(=N)Nc1ccccc1C [[^3H]DTG]
Bmax, high affinity, low capacity site (σ2 receptor) (σ2 receptors; [10]): 711 ± 81 fmol/mg protein | Bmax, low affinity, high capacity site (σ2 receptors; [10]): 21307 ± 7059 fmol/mg protein

C=CCN1CCC2(C)c3cc(O)ccc3CC1C2C (single isomer, unassigned; (+)) [(+)-NANM, (+)-N-allylnormetazocine]
Sigma1 nH (σ1 receptors [1]; [11]): 1.06 ± 0.11 | Selectivity Ki Ratio σ2/σ1 (σ1 receptors [1]): 608 | IC50 (σ1 receptors [1]; [12]): 20.6 ± 1.14 nM | Ki (σ1 receptors [1]; read-out: Sigma1 Ki): 13.3 ± 0.74 nM | Sigma2 nH (σ2 receptors; [13]): 0.98 ± 0.12 | IC50 (σ2 receptors; [14]): 8990 ± 850 nM

CCCN1CCC=C(c2cc(-c3ccc(C)cc3)no2)C1 [PD144418]
σ1 receptor occupancy threshold for significant behavioral effects (σ1 receptors [2]): 80% | Ki (σ1 receptors [3]): 0.19 nM

CC(C)=CCN1CC[C@]2(C)c3cc(O)ccc3C[C@H]1[C@H]2C [(+)-Pentazocine, (+)-pentazocine]
Sigma1 nH (σ1 receptors [1]; [11]): 1.09 ± 0.03

COc1ccc(CCN2CCN(C/C=C/[125I])CC2)cc1OC [[^125I]E-IA-DM-PE-PIPZE, [^125I]E-N-1-(3′-iodoallyl)-N′-4-(3″,4″-dimethoxyphenethyl)-piperazine]
Control specific binding to σ1 receptors, brain (σ1 receptors [4]; [15]): 83% | Control specific binding to σ1 receptors, heart (σ1 receptors [4]; [15]): 53% | Control specific binding to σ1 receptors, lung (σ1 receptors [4]; [15]): 66% | Control specific binding to σ1 receptors, spleen (σ1 receptors [4]; [15]): 71% | Specific Binding [^125I]E-IA-DM-PE-PIPZE, Control (σ1 receptors [5]; Caudate-putamen): 1.96 ± 0.07 fmol/mg tissue | Specific Binding [^125I]E-IA-DM-PE-PIPZE, Control (σ1 receptors [5]; Cortex, Cingulate): 2.69 ± 0.20 fmol/mg tissue | Specific Binding [^125I]E-IA-DM-PE-PIPZE, Control (σ1 receptors [5]; Cortex, Entorhinal): 2.52 ± 0.09 fmol/mg tissue | Specific Binding [^125I]E-IA-DM-PE-PIPZE, Control (σ1 receptors [5]; Cortex, Frontal): 2.99 ± 0.19 fmol/mg tissue | Specific Binding [^125I]E-IA-DM-PE-PIPZE, Control (σ1 receptors [5]; Cortex, Parietal): 3.12 ± 0.14 fmol/mg tissue | Specific Binding [^125I]E-IA-DM-PE-PIPZE, Control (σ1 receptors [5]; Cortex, Temporal): 2.93 ± 0.16 fmol/mg tissue | Specific Binding [^125I]E-IA-DM-PE-PIPZE, Control (σ1 receptors [5]; Diencephalon, Thalamic nuclei): 2.94 ± 0.10 fmol/mg tissue | Specific Binding [^125I]E-IA-DM-PE-PIPZE, Control (σ1 receptors [5]; Diencephalon, Thalamus): 2.57 ± 0.13 fmol/mg tissue | Specific Binding [^125I]E-IA-DM-PE-PIPZE, Control (σ1 receptors [5]; Hippocampus, CA1 pyramidal): 2.25 ± 0.12 fmol/mg tissue | Specific Binding [^125I]E-IA-DM-PE-PIPZE, Control (σ1 receptors [5]; Hippocampus, CA2 pyramidal): 2.87 ± 0.13 fmol/mg tissue | Specific Binding [^125I]E-IA-DM-PE-PIPZE, Control (σ1 receptors [5]; Hippocampus, CA3 pyramidal): 3.34 ± 0.10 fmol/mg tissue | Specific Binding [^125I]E-IA-DM-PE-PIPZE, Control (σ1 receptors [5]; Hippocampus, Dentate Gyrus): 3.27 ± 0.08 fmol/mg tissue | Specific Binding [^125I]E-IA-DM-PE-PIPZE, Control (σ1 receptors [5]; Hippocampus, Nonpyramidal): 1.84 ± 0.08 fmol/mg tissue | Specific Binding [^125I]E-IA-DM-PE-PIPZE, Control (σ1 receptors [5]; Mesencephalon, Inferior Colliculi): 3.50 ± 0.20 fmol/mg tissue | Specific Binding [^125I]E-IA-DM-PE-PIPZE, Control (σ1 receptors [5]; Mesencephalon, Periaqueductal Gray): 4.07 ± 0.13 fmol/mg tissue | Specific Binding [^125I]E-IA-DM-PE-PIPZE, Control (σ1 receptors [5]; Mesencephalon, Superior Colliculi): 3.50 ± 0.14 fmol/mg tissue | Specific Binding [^125I]E-IA-DM-PE-PIPZE, Control (σ1 receptors [5]; Metencephalon, Cerebellum (whole)): 3.18 ± 0.08 fmol/mg tissue | Specific Binding [^125I]E-IA-DM-PE-PIPZE, Control (σ1 receptors [5]; Metencephalon, Granular layer): 4.13 ± 0.20 fmol/mg tissue | Specific Binding [^125I]E-IA-DM-PE-PIPZE, Control (σ1 receptors [5]; Metencephalon, Molecular layer): 2.38 ± 0.08 fmol/mg tissue | Specific Binding [^125I]E-IA-DM-PE-PIPZE, Control (σ1 receptors [5]; White Matter, Corpus callosum): 1.99 ± 0.06 fmol/mg tissue | Selectivity for binding to σ1 over σ2 receptors (σ1 receptors [1]; from Table II): 200 fold | Metabolic stability [6]: excellent metabolic stability

CC(C(O)c1ccc(O)cc1)N1CCC(Cc2ccccc2)CC1 (stereo not drawn) [Ifenprodil, ifenprodil (+)-tartrate]
IC50 (σ1 receptors [1]): 35 ± 0.95 nM | Ki (σ1 receptors [1]): 22.7 ± 0.61 nM | Sigma1 nH (σ1 receptors [1]; [11]): 1.08 ± 0.06 | Selectivity Ki Ratio σ2/σ1 (σ1 receptors [1]): 0.1 | IC50 (σ2 receptors): 2.69 ± 0.36 nM | Ki (σ2 receptors): 2.43 ± 0.32 nM | Sigma2 nH (σ2 receptors; [13]): 0.70 ± 0.07

CC(C)=CCN1CC[C@]2(C)c3cc(O)ccc3C[C@H]1[C@H]2C [[^3H](+)-Pentazocine]
Maximal site density (Bmax), σ1 receptors (σ1 receptors [1]; saturation binding, 37 °C, 180 min): 538 ± 30 fmol/mg protein and 538 fmol/mg protein

(−)-Cocaine hydrochloride
Log D7.4 [7]: 1.31 | ED50 for displacement of striatal binding (striatal DAT): 38 µmol/kg | ED50 for maximum stimulatory effects on locomotor activity (mice; CD-1 mice, 3 h period, ref Thomsen and Caine (2011)): 18.2 mg/kg | ED50 for maximum stimulatory effects on locomotor activity (mice; CD-1 mice, first hour, ref Carroll et al. (2004)): 10 mg/kg | ED50 for maximum stimulatory effects on locomotor activity (mice; Swiss Webster mice, 3 h period, ref Thomsen and Caine (2011)): 9.7 mg/kg

COc1ccc(CCN2CCN(C/C=C/I)CC2)cc1OC [E-IA-DM-PE-PIPZE, E-N-1-(3′-iodoallyl)-N′-4-(3″,4″-dimethoxyphenethyl)-piperazine]
Occupancy of cerebral σ1 receptors (σ1 receptors [4]; 0.316 μmol/kg i.p.): 58% | Occupancy of cerebral σ1 receptors (σ1 receptors [4]; 3.16 μmol/kg i.p.): 86% | ED50 for σ1 occupancy, brain (σ1 receptors [4]; [16]): 0.23 µmol/kg | ED50 for σ1 occupancy, heart (σ1 receptors [4]; [16]): 0.03 µmol/kg | ED50 for σ1 occupancy, lung (σ1 receptors [4]; [16]): 0.08 µmol/kg | ED50 for σ1 occupancy, spleen (σ1 receptors [4]; [16]): 0.35 µmol/kg | Inhibition of striatal [^125I]RTI-121 specific binding ([8]; 10.0 μmol/kg i.p.): did not affect radioligand binding; also recorded: No inhibition | Effect on basal locomotor activity (CD-1 mice): do not significantly; also recorded: not affected | Sigma1 nH (σ1 receptors [1]; [11]): 0.98 ± 0.07 | Selectivity Ki Ratio σ2/σ1 (σ1 receptors [1]): 215 | IC50 (σ1 receptors [1]; [12]): 10.4 ± 1.39 nM | Ki (σ1 receptors [1]; read-out: Sigma1 Ki): 6.73 ± 0.9 nM | Sigma2 nH (σ2 receptors; [13]): 0.98 ± 0.08 | IC50 (σ2 receptors; [14]): 1600 ± 243 nM | Ki (DAT): > 10000 nM

Fc1ccc(C(OCCN2CCN(CCCc3ccccc3)CC2)c2ccc(F)cc2)cc1 [GBR12909, 1-{2-[bis-(4-fluorophenyl)methoxy]ethyl}-4-(3-phenylpropyl)piperazine]
inhibition at 10 µmol/kg ([8]; mouse, iv, read-out: Inhibition of specific [^125I]RTI-121 binding): 75%

COc1ccc(CCN2CCN(C/C=C/I)CC2)cc1OC [[^125I]E-IA-DM-PE-PIPZE, [^125I]E-N-1-(3′-iodoallyl)-N′-4-(3″,4″-dimethoxyphenethyl)-piperazine]
Kd (σ1 receptors [9]): 3.79 nM

C=CCN1CCC2(C)c3cc(O)ccc3CC1C2C (single isomer, unassigned; (-)) [(−)-NANM, (−)-N-allylnormetazocine]
Sigma1 nH (σ1 receptors [1]; [11]): 1.09 ± 0.08 | Selectivity Ki Ratio σ2/σ1 (σ1 receptors [1]): 2.6 | IC50 (σ1 receptors [1]; [12]): 3980 ± 600 nM | Ki (σ1 receptors [1]; read-out: Sigma1 Ki): 2550 ± 383 nM | Sigma2 nH (σ2 receptors; [13]): 0.93 ± 0.08 | IC50 (σ2 receptors; [14]): 7460 ± 469 nM

Cc1ccccc1NC(=N)Nc1ccccc1C [DTG, 1,3-di(2-tolyl)guanidine]
IC50 (σ1 receptors [1]): 173 ± 19.9 nM | Ki (σ1 receptors [1]): 112 ± 12.9 nM | Sigma1 nH (σ1 receptors [1]; [11]): 0.91 ± 0.14 | Sigma2 nH (σ2 receptors; [13]): 0.88 ± 0.05
